As a reminder, the pIC50 is the IC50 on a negative log10 scale, so that one unit is a factor of ten. The IC90 is the point of the concentration-response curve where the effect stands at 90%. Read a low IC90 as greater potency.

This assay has as its system Mycobacterium tuberculosis H37Rv growth inhibition, no glycerol. In words: Mycobacterium tuberculosis H37Rv growth inhibition, no glycerol, confirmatory dose response (AID 449764).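 For all read-outs here: growth read after 7 days of incubation.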 To be noted: for IC90: measured here: IC90 growth inhibition.

pIC50: −log10 of the molar value.

`O=C(/C=C/c1c(F)cccc1Cl)c1ccc(F)cc1`: the pIC50 was 4.33 and the IC90 turned out to be 73 µM.

For the compound `NC(=S)NNc1ccc(Cl)c(Cl)c1`, the pIC50 was 5.11 and the IC90 turned out to be 12.1 µM.

For `C/C(=N\N=C(/N)SC1CC(=O)N(c2ccc(Cl)cc2)C1=O)c1cccs1` (stereo unspecified), the pIC50 was 4.48 and the IC90 was above 100 µM.

`O=c1oc(-c2cccs2)nc2c1cnn2-c1ccccc1` registered an IC90 above 100 µM.

For the compound `Cc1cc(C)nc(-n2nc(C)cc2NC(=O)CN2CCC(C)CC2)n1`, the pIC50 was 4.78 and the IC90 was found to be 35.3 µM.

On to `Cc1ccc2c(c1)c1ncnc(N3CCc4ccccc4C3)c1n2C`, for which the pIC50 was 4.13 and the concentration for an effect of 90% (IC90) is above 100 µM.

Regarding `Cc1cccc(N2CCN(CC(=O)Nc3nccs3)CC2)c1C`, the pIC50 is 4.41 and the IC90 was 69.2 µM.

On to `CNC(=S)Nc1ccc(N2CCN(c3ccc(C(F)(F)F)cn3)CC2)nc1`, for which the negative-log IC50 (pIC50) is 5.03 and the IC90 was above 100 µM.

As for `c1ccc(CC2CCN(C3=Nc4cccc5cccc3c45)CC2)cc1`, the pIC50 was 4.55 and the IC90 stood at 37.9 µM.

With `O=C(OCC(=O)N1CCC(c2ccccc2)=N1)c1ccc(Cl)s1`, the pIC50 is 4.01 and the IC90 is above 100 µM.

As to `CCOC(=O)CSc1nnc(NC(=O)c2ccc3c(c2)OCO3)s1`, the pIC50 was 4.94 and the IC90 was found to be 20.2 µM.

In the case of `Cc1nc2ccc(OC(=O)c3ccccc3)cc2s1`, the pIC50 is 4.06 and the IC90 is above 100 µM.

As for `O=C(NCC1CC1)c1cc([N+](=O)[O-])cc([N+](=O)[O-])c1`, the pIC50 was 5.18 and the 90% effect concentration (IC90) was determined as 11.2 µM.

On to `CC(=O)/C=C(\C)Nc1ccccc1O`, for which the pIC50 was 5.35 and the IC90 is 5.87 µM.

`CCOc1ccc(NCc2cccn2-c2nnc(N3CCC(C(=O)NCCCN4C(C)CCCC4C)CC3)s2)cc1` (stereo unspecified): the pIC50 was 4.03 and the IC90 is above 100 µM.

The compound `COc1ccc([C@H]2CC(=O)C=C(c3ccc4c5c(cccc35)CC4)C2)cc1` gave an IC90 above 100 µM.

The compound `COc1ccc2c(c1)CC/C(=C\C=C\c1ccccc1OC)C2=O` displayed an IC90 above 100 µM.

Turning to `NNC(=S)Nc1ccccc1Cl`, the pIC50 is 4.08 and the IC90 amounted to 93 µM.

Consider `Cc1nn(CCc2nn[nH]n2)c2nc(-c3ccc(Br)cc3)cc(C(F)(F)F)c12`, for which the pIC50 is 5.08 and the IC90 came out at 16.8 µM.

Consider `O=C(NCc1ccccn1)C(=O)Nc1nc(C23CC4CC(CC(C4)C2)C3)cs1`, for which the pIC50 was 5.19 and the IC90 stood at 14.7 µM.

Take `Cc1nn(-c2nc3ccccc3[nH]2)c(N)c1-c1ccc(Cl)cc1`: the pIC50 is 5.43 and the concentration for an effect of 90% (IC90) is above 100 µM.

With `CCCCOc1ccc(-c2nnn(C(C)C(=O)OCC)n2)cc1` (stereo unspecified), the negative logarithm of the IC50 (pIC50) was 5.55 and the IC90 worked out at 8.73 µM.

Regarding `COC(=O)c1cc(Sc2cccc(Cl)c2Cl)ccn1`, the negative-log IC50 (pIC50) is 4.54 and the IC90 is 40.5 µM.

Regarding `C=C(C)C(=O)OCC(O)COc1ccc(C(C)(C)c2ccc(OCC(O)COC(=O)C(=C)C)cc2)cc1` (stereo unspecified), the pIC50 was 4.45 and the IC90 was found to be 49.1 µM.

For the compound `COc1ccc(CN2CCCC(C(=O)c3ccc(SC)cc3)C2)cc1Cn1cccn1` (stereo unspecified), the pIC50 is 4.60 and the IC90 came to 28.2 µM.

For the compound `CNc1ccc2oc(C[C@H]3O[C@@]4(CC[C@H]3C)O[C@H]([C@H](C)C(=O)c3ccc[nH]3)[C@H](C)C[C@H]4C)nc2c1C(=O)O`, the pIC50 is 5.55 and the IC90 was found to be 3.18 µM.

For `CCCc1cc(NC(=O)CCl)n(-c2ccccc2)n1`, the pIC50 is 5.53 and the IC90 was 3.32 µM.

In the case of `O=C1C2(Cl)C3(Cl)C4(Cl)C(Cl)(Cl)C5(Cl)C3(Cl)C1(Cl)C5(Cl)C24Cl` (stereo unspecified), the pIC50 was 4.35 and the IC90 was found to be 65.2 µM.

On to `Cc1cc(C(=O)N[C@H](c2ccccc2)[C@@]2(C)C[C@@H]2[C@@H](C)C(=O)Nc2ccc3ccccc3c2)n(C)n1`, for which the pIC50 was 4.41 and the IC90 was determined as 53.9 µM.

For the compound `C=C[C@]1(C)C[C@@H](OC(=O)CSCCN(CC)CC)[C@]2(C)C(C)CC[C@]3(CCC(=O)[C@H]32)[C@@H](C)[C@@H]1O` (stereo partly specified), the pIC50 was 5.24 and the 90% effect concentration (IC90) worked out at 8.16 µM.

`COC(=O)COc1ccc(-c2ccccc2)cc1C=O`: the pIC50 was 4.79 and the IC90 worked out at 26 µM.

Regarding `CCOc1ccc(-c2cc(CCCC(=O)NCCC(C)C)no2)cc1`, the pIC50 was 4.65 and the IC90 was 25.7 µM.

Consider `Cc1ccc(NCc2ccc(O)c3ncccc23)cc1C`, for which the pIC50 is 4.02 and the IC90 is above 100 µM.

Take `CCOc1ccc(C(=O)CCN2CCCCCC2)cc1`: the negative logarithm of the IC50 (pIC50) is 4.63 and the IC90 was determined as 26.2 µM.

For `COc1ccccc1N1CCN(/N=C/C(Cl)=C/c2ccccc2)CC1`, the pIC50 is 4.05 and the IC90 was above 100 µM.

Regarding `Clc1ccc(CNc2nc(CN3CCOCC3)nc3scc(-c4ccccc4)c23)cc1`, the pIC50 was 4.47 and the 90% effect concentration (IC90) was 42.1 µM.

For `COC(=O)C1=C(c2ccc(OCc3ccccc3)cc2)C[C@@H]2CC[C@H]1N2C(=O)NC1CCN(Cc2ccccc2)CC1`, the pIC50 was 4.60 and the IC90 was 29.1 µM.

`COc1ccc(C2(c3ccc(OC)cc3)NC(=O)N(CC(=O)Nc3ccc(OC(F)F)cc3)C2=O)cc1`: the pIC50 was 4.60 and the IC90 is 53.9 µM.

As for `Cc1c(Cl)ccc2c1NC(=O)[C@]21N[C@@H](Cc2ccccc2)[C@H]2C(=O)N(c3ccc(F)cc3)C(=O)[C@H]21`, the pIC50 is 4.63 and the IC90 was 26.6 µM.

As to `CCc1ccc2oc(-c3ccc(OC)cc3)cc(=Nc3c(C)n(C)n(-c4ccccc4)c3=O)c2c1`, the negative-log IC50 (pIC50) is 4.73 and the IC90 came out at 23.4 µM.

As for `CCCCS(=O)(=O)/C=C\C=C/S(=O)(=O)CCCC`, the pIC50 is 5.65 and the IC90 is 2.92 µM.

Turning to `CN1/C(=C\C(=O)C[n+]2ccc(C(=O)c3ccccc3)cc2)C(C)(C)c2ccccc21`, the pIC50 was 4.88 and the IC90 is 21.1 µM.

Consider `Cc1cc2c(cc1C)/C(=N/NC(=O)c1ccccn1)CCC2`, for which the pIC50 is 4.62 and the IC90 amounted to 53.6 µM.

For `c1ccc2c(c1)ncn2CCCCOc1ccc2c(c1)CCC2`, the pIC50 is 4.62 and the IC90 turned out to be 27.4 µM.

Consider `CCCCCCCCCCCCCCCC[N+](C)(C)CC`, for which the pIC50 is 4.44 and the IC90 was 48.4 µM.

With `CN(C)CCCN1c2ccccc2Sc2ccc(Cl)cc21`, the pIC50 was 4.33 and the IC90 was determined as 60 µM.

With `Cc1csc(NC(=O)CCCC(=O)O)c1-c1nc2ccccc2s1`, the pIC50 was 4.04 and the IC90 is above 100 µM.

For the compound `CC(=O)OC1=Cc2c(ccc3ccc(=O)oc23)OC1(C)C`, the pIC50 was 4.32 and the IC90 was above 100 µM.

Regarding `S=c1nc[nH]c2nc[nH]c12`, the pIC50 was 5.48 and the IC90 amounted to 5.19 µM.

With `Cc1ccc(/C=C2\SC(N3CCCC3)=NC2=O)cc1`, the pIC50 was 6.13 and the IC90 came to 4.62 µM.

On to `COc1cccc(-n2nnc3c(=O)n(CC(=O)N4CCC(Cc5ccccc5)CC4)cnc32)c1`, for which the negative-log IC50 (pIC50) was 4.29 and the IC90 was above 100 µM.

Regarding `Cc1nc(SCC(=O)NC2CCCCC2)[nH]c(=O)c1C`, the pIC50 was above 6.70 and the IC90 worked out at 0.57 µM.

On to `O=C(CCn1c(=O)c2cccn2c2cccnc21)N1CCN(c2cccc(Cl)c2)CC1`, for which the pIC50 was 4.51 and the IC90 was 46.9 µM.

In the case of `CCCOC(=O)CSc1nc(N2CCOCC2)c2c(c1C#N)CC(C)(C)OC2`, the pIC50 was 4.62 and the IC90 came to 42.5 µM.

Consider `CC1CCCN(Cc2c(O)ccc3c(=O)c(-c4nc5ccccc5s4)c(N)oc23)C1` (stereo unspecified), for which the pIC50 was 4.93 and the IC90 was 21 µM.

For the compound `Cc1ccc(CN2CCN(/N=C/c3ccc(Cl)c([N+](=O)[O-])c3)CC2)cc1`, the pIC50 was 4.40 and the IC90 turned out to be 55.3 µM.

Take `NC(N)=Nc1nc(-c2ccccc2)c2ccccc2n1`: the negative-log IC50 (pIC50) was 4.05 and the IC90 is above 100 µM.

In the case of `CNc1nc(SCc2ccccc2Cl)nc2c1CCCC2`, the pIC50 was 6.35 and the concentration for an effect of 90% (IC90) amounted to 1.21 µM.

In the case of `Cc1cc(C)n(C(=O)c2ccc([N+](=O)[O-])cc2[N+](=O)[O-])n1`, the pIC50 was 5.05 and the IC90 was determined as 12.3 µM.

With `COC(=O)Cn1nc(-c2ccccc2)c2cc(Cl)ccc21`, the pIC50 is 4.66 and the IC90 was above 100 µM.

`CC(C)(C)NC(=O)C(=O)NNC(=O)c1ccc(C(C)(C)C)cc1`: the pIC50 was 4.84 and the IC90 was above 100 µM.

Consider `O=S(Cc1ccc(Br)cc1)Cc1nnc(SCc2ccc(Cl)cc2)n1-c1ccccc1` (stereo unspecified), for which the pIC50 was 4.08 and the concentration for an effect of 90% (IC90) was above 100 µM.

For `C/C(=N\Nc1nc2c(s1)CCCC2)c1ccccc1`, the pIC50 is 4.51 and the IC90 was found to be 47.2 µM.

In the case of `CN(C(=O)c1cccc(Nc2ccc(-c3ccc4c(c3)OCCO4)nn2)c1)C1CCCCC1`, the pIC50 was 4.16 and the IC90 was above 100 µM.

Turning to `CCOc1ccc(-c2cc(C)[n+](CCc3ccc(OC)c(OC)c3)c(-c3ccc(OCC)cc3)c2)cc1`, the pIC50 is 5.78 and the IC90 amounted to 2.52 µM.

As for `COc1ccc(C(CCNCc2ccc(OC(C)C)cc2)C(C)C)cc1` (stereo unspecified), the pIC50 was 4.62 and the IC90 was determined as 32.4 µM.

Take `NC1=NC[C@H](CC2CCCCC2)N1CCc1cc(C(F)(F)F)cc(C(F)(F)F)c1`: the pIC50 was 4.95 and the IC90 amounted to 12.8 µM.

In the case of `CCN1CCN(Cc2ccc(NC(=O)c3ccc(C)c(/C=C/c4cnc(Nc5cc(N6CCNCC6)nc(C)n5)cn4)c3)cc2C(F)(F)F)CC1`, the pIC50 was 4.18 and the IC90 was 89.8 µM.

As for `O=C1NCC(O)=C1C=Nc1ccccc1O`, the pIC50 is 5.26 and the IC90 stood at 7.6 µM.

For `CCOc1ccc(CN(C)CC(O)COC(c2ccc(OC)cc2)c2ccc(OC)cc2)cc1` (stereo unspecified), the pIC50 is 4.79 and the IC90 was determined as 18.9 µM.

For the compound `O=C(CSc1nn(-c2ccc(F)cc2)c(=S)s1)NCC1CCCO1` (stereo unspecified), the pIC50 is 4.68 and the IC90 is above 100 µM.

On to `O=C(c1ccc([N+](=O)[O-])s1)N1CCN(c2ccc(C(F)(F)F)cn2)CC1`, for which the pIC50 is 4.86 and the IC90 was determined as 17.5 µM.

These data come from PubChem BioAssay AID449764 (Southern Research Specialized Biocontainment Screening …, 2010).
